Source: ChEMBL document CHEMBL1136991, “Novel potent BRAF inhibitors: toward 1 nM compounds through optimization of the central phenyl ring” (J Med Chem, 2009)

Assays:
[1] = target: Serine/threonine-protein kinase Nek6 (Homo sapiens) (UniProt Q9HC98); experiment: Inhibition of NEK6 at 1 uM relative to control
[2] = target: T1, Mitogen-activated protein kinase 15 (Homo sapiens) (UniProt Q8TD08); experiment: Inhibition of ERK8 at 1 uM relative to control
T1 sequence (whole entry): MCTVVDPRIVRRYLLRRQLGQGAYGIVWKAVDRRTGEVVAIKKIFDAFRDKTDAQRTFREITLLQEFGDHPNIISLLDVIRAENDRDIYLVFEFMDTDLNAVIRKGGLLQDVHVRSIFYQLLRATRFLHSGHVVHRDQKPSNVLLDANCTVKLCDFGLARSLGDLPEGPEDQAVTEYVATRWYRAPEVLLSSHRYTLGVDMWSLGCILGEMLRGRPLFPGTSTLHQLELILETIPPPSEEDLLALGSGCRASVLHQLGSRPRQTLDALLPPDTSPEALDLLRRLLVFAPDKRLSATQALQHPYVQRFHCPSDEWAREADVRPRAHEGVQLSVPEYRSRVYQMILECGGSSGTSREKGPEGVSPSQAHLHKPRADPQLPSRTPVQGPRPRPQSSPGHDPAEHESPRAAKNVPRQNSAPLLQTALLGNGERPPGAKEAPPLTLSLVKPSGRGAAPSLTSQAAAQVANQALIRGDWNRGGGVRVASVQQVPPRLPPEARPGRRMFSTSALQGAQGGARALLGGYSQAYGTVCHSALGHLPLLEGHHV

[3] = target: Serine/threonine-protein kinase PLK1 (Homo sapiens) (UniProt P53350); experiment: Inhibition of okadaic acid activated PLK1 at 1 uM relative to control
[4] = target: T2, Serine/threonine-protein kinase Nek2 (Homo sapiens) (UniProt P51955); experiment: Inhibition of NEK2a at 1 uM relative to control
T2 sequence (whole entry): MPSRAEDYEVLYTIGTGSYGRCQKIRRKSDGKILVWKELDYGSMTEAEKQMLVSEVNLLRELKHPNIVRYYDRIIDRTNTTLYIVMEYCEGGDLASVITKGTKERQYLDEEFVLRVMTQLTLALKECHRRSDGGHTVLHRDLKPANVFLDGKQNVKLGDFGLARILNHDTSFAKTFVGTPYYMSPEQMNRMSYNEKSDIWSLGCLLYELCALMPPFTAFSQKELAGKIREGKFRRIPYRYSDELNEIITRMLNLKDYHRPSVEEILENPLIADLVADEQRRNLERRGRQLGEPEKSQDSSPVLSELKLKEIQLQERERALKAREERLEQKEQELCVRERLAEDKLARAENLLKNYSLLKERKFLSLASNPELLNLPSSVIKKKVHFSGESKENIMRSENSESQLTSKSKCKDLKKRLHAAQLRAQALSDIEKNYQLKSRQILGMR

[5] = Inhibition of p38S at 1 uM relative to control
[6] = target: Mitogen-activated protein kinase 11 (Homo sapiens) (UniProt Q15759); experiment: Inhibition of p38beta at 1 uM relative to control
[7] = target: Serine/threonine-protein kinase pim-3 (Homo sapiens) (UniProt Q86V86); experiment: Inhibition of PIM3 at 1 uM relative to control
[8] = target: Serine/threonine-protein kinase Chk2 (Homo sapiens) (UniProt O96017); experiment: Inhibition of CHK2 at 1 uM relative to control
[9] = target: RAC-alpha serine/threonine-protein kinase (Homo sapiens) (UniProt P31749); experiment: Inhibition of PKBalpha at 1 uM relative to control
[10] = target: Rho-associated protein kinase 2 (Homo sapiens) (UniProt O75116); experiment: Inhibition of ROCK2 at 1 uM relative to control
[11] = target: T3, MAP kinase-activated protein kinase 5 (Homo sapiens) (UniProt Q8IW41); experiment: Inhibition of PRAK at 1 uM relative to control
T3 sequence (whole entry): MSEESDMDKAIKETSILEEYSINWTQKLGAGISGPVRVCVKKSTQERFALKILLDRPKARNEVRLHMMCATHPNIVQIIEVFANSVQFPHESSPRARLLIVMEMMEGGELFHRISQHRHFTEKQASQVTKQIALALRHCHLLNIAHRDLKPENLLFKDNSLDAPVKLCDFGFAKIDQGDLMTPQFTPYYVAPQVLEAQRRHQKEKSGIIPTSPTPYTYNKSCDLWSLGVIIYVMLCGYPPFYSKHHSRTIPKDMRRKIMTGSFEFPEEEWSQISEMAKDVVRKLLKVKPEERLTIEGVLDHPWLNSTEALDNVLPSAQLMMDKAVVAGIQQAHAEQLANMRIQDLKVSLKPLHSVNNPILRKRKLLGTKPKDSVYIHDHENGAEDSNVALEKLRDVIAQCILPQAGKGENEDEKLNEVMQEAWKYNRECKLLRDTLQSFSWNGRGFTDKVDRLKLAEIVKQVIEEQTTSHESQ

[12] = target: Mitogen-activated protein kinase 10 (Homo sapiens) (UniProt P53779); experiment: Inhibition of JNK3 at 1 uM relative to control
[13] = target: Aurora kinase B (Homo sapiens) (UniProt Q96GD4); experiment: Inhibition of Aurora B at 1 uM relative to control
[14] = target: Calcium/calmodulin-dependent protein kinase type 1 (Homo sapiens) (UniProt Q14012); experiment: Inhibition of CAMK1 at 1 uM relative to control
[15] = target: Proto-oncogene tyrosine-protein kinase Src (Homo sapiens) (UniProt P12931); experiment: Inhibition of Src at 1 uM relative to control
[16] = target: T4, 5'-AMP-activated protein kinase subunit beta-1 (Homo sapiens) (UniProt Q9Y478); experiment: Inhibition of AMPK at 1 uM relative to control
T4 sequence (whole entry): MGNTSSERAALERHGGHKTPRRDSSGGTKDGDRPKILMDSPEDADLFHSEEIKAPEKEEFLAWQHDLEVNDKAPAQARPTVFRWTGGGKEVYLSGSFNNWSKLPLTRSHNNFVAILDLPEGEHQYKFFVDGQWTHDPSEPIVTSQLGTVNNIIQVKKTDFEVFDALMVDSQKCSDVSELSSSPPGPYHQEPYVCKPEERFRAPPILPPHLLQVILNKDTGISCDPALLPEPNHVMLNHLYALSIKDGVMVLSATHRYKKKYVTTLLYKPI

[17] = target: Serine/threonine-protein kinase N2 (Homo sapiens) (UniProt Q16513); experiment: Inhibition of PRK2 at 1 uM relative to control
[18] = target: Myosin light chain kinase, smooth muscle (Homo sapiens) (UniProt Q15746); experiment: Inhibition of smooth muscle MLCK at 1 uM relative to control; format: tissue-based; settings: Muscle tissue
[19] = target: Serine/threonine-protein kinase PAK 5 (Homo sapiens) (UniProt Q9P286); experiment: Inhibition of PAK5 at 1 uM relative to control
[20] = target: SRSF protein kinase 1 (Homo sapiens) (UniProt Q96SB4); experiment: Inhibition of SRPK1 at 1 uM relative to control
[21] = target: RAC-beta serine/threonine-protein kinase (Homo sapiens) (UniProt P31751); experiment: Inhibition of PKBbeta at 1 uM relative to control

Chain of Myosin light chain kinase, smooth muscle (Homo sapiens) (Q15746 whole entry): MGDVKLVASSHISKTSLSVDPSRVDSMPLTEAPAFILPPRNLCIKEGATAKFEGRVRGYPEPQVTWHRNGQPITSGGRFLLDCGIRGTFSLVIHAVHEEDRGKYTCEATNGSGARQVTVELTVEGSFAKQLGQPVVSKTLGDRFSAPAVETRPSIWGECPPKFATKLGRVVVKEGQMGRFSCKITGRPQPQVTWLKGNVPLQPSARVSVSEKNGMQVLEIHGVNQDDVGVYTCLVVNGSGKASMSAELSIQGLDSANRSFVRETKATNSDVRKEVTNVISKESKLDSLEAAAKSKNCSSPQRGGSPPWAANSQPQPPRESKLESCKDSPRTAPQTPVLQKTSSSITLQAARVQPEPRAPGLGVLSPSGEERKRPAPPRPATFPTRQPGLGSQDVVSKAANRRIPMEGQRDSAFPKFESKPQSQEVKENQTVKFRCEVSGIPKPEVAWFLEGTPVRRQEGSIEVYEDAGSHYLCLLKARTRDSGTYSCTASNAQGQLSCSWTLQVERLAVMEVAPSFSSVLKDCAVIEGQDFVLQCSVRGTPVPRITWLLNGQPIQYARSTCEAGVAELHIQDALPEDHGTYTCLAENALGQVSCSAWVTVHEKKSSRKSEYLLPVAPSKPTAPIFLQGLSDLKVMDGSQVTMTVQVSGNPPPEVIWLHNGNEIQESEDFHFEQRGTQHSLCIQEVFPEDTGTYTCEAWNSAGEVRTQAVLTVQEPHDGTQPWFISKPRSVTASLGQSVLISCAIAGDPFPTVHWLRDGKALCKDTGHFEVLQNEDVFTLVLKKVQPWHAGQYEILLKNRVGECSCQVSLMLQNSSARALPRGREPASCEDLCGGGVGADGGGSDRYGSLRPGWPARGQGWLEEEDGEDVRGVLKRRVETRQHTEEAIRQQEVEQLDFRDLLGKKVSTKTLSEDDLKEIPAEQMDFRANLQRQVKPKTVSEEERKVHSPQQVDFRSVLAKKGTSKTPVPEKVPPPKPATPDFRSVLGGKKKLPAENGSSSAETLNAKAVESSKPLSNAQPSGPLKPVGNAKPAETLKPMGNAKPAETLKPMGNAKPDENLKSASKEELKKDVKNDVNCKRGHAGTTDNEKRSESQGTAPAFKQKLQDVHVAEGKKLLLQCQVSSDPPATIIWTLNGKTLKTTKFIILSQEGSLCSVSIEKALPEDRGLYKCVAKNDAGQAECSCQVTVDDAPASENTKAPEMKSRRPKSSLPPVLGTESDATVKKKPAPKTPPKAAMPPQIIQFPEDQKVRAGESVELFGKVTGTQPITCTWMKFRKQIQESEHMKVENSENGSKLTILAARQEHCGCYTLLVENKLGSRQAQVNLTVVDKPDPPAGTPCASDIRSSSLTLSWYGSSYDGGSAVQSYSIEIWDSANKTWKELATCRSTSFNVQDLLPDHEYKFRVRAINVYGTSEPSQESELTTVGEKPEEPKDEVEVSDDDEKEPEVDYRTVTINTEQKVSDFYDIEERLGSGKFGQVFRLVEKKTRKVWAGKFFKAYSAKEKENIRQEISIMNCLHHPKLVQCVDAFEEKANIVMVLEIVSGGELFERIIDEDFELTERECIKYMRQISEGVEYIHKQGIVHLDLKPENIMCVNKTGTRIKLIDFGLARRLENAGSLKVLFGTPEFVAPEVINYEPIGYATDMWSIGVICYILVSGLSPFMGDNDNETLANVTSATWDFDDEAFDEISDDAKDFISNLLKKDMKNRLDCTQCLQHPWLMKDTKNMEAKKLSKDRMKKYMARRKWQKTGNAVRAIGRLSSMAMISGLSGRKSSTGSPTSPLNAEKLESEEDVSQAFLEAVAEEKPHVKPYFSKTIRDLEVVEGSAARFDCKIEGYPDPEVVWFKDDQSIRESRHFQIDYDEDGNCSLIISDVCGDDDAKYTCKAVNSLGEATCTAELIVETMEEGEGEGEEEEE
Chain of Serine/threonine-protein kinase PAK 5 (Homo sapiens) (Q9P286 whole entry, looked up): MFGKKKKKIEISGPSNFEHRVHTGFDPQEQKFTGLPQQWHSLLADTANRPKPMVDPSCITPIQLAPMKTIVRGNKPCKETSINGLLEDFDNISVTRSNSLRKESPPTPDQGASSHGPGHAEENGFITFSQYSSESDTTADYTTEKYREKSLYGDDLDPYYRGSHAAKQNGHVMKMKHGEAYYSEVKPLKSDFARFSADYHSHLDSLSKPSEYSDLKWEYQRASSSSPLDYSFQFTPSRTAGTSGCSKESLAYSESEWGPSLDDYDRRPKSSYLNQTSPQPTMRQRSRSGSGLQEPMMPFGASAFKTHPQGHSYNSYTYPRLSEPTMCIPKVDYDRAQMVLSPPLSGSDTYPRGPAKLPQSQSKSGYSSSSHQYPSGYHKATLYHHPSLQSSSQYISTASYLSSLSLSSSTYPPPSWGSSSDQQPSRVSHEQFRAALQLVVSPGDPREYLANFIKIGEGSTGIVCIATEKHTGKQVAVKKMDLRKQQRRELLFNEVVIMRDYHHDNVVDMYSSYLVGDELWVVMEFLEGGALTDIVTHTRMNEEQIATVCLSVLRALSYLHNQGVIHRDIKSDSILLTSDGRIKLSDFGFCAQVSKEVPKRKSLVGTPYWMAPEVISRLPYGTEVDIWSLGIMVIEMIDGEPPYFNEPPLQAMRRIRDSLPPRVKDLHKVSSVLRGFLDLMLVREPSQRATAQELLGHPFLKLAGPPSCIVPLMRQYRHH
Chain of SRSF protein kinase 1 (Homo sapiens) (Q96SB4 whole entry): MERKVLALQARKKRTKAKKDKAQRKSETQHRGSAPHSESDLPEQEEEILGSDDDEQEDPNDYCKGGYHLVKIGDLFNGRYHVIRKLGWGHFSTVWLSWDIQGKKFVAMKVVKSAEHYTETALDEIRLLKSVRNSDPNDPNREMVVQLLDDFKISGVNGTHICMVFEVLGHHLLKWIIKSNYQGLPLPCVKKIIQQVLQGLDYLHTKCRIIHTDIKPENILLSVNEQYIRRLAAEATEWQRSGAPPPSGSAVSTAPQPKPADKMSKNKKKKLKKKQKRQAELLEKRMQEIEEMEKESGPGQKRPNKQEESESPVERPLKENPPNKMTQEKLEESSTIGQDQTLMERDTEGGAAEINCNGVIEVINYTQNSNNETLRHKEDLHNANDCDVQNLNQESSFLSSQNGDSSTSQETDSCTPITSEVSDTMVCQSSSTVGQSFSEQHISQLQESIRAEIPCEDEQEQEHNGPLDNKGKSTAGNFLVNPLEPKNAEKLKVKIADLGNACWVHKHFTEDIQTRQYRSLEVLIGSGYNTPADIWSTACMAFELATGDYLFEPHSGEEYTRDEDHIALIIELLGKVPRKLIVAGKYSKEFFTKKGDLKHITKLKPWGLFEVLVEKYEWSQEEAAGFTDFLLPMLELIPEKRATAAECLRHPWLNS
Chain of Aurora kinase B (Homo sapiens) (Q96GD4 whole entry): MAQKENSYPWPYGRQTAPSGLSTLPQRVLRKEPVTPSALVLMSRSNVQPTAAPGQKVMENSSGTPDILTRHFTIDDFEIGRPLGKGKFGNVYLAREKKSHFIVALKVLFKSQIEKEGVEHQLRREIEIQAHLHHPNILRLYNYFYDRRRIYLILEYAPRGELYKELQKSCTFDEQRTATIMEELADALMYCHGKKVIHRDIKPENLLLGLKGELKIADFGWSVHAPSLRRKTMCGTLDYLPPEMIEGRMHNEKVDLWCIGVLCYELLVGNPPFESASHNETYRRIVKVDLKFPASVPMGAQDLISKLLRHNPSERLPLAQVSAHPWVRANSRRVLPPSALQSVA
Chain of Calcium/calmodulin-dependent protein kinase type 1 (Homo sapiens) (Q14012 whole entry, looked up): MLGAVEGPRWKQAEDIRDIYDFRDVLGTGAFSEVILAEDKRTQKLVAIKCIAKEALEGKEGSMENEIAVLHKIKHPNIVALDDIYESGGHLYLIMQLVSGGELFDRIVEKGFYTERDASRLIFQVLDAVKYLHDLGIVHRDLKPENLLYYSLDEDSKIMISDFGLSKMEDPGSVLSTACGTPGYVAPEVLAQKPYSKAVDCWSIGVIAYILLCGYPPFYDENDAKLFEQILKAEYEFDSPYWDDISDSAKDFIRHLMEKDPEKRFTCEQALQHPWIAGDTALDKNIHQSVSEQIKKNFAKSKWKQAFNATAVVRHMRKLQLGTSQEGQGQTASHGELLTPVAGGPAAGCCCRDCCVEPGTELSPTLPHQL
Chain of Serine/threonine-protein kinase PLK1 (Homo sapiens) (P53350 whole entry): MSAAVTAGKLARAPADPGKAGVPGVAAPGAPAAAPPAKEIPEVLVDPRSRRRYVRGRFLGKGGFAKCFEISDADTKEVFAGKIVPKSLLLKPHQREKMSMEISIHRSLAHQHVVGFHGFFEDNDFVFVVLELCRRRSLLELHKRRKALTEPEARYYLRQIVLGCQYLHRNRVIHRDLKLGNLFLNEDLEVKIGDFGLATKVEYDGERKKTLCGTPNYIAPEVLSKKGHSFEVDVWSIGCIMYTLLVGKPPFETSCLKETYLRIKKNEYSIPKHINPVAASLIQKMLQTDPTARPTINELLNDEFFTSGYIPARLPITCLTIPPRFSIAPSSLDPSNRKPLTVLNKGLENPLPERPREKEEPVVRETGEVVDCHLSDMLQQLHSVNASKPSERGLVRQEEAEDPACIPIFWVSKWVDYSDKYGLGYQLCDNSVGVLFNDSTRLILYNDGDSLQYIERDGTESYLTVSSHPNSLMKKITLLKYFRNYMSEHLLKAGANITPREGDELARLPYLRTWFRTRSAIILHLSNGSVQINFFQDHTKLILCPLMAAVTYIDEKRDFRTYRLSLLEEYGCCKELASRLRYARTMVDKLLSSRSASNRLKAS

residual activity [1] [%] | residual activity [3] [%] | residual activity [4] [%] | residual activity [5] [%] | residual activity [6] [%] | residual activity [7] [%] | residual activity [8] [%] | residual activity [9] [%] | residual activity [10] [%] | residual activity [11] [%] | residual activity [12] [%] | residual activity [13] [%] | residual activity [14] [%] | residual activity [15] [%] | residual activity [16] [%] | residual activity [17] [%] | residual activity [18] [%] | residual activity [19] [%] | residual activity [20] [%] | SMILES | residual activity [2] [%] | further results
75 | 75 | 75 | 50 | < 25 | 75 | 75 | 75 | 75 | 75 | 75 | 50 | 75 | < 25 | 75 | 100 | 75 | 75 | 75 | CC(C)(C)c1cccc(NC(=O)Nc2ccc(Oc3ccnc4[nH]c(=O)[nH]c34)c3ccccc23)c1 | < 25 | residual activity [21]: 75%
100 | 100 | 100 | 75 | < 25 | 100 | 100 | 100 | 75 | 75 | 100 | < 25 | < 25 | < 25 | 100 | 100 | 100 | 100 | 75 | O=C(Nc1cc(C(F)(F)F)ccc1F)Nc1ccc(Oc2ccnc3[nH]c(=O)[nH]c23)c2ccccc12 | 100 | residual activity [21]: 100%
100 | 100 | 100 | 50 | < 25 | 100 | 100 | 100 | 75 | 75 | 100 | < 25 | < 25 | < 25 | 100 | 100 | 100 | 75 | 75 | CSc1cc(Oc2ccnc3[nH]c(=O)[nH]c23)ccc1NC(=O)Nc1cccc(C(F)(F)F)c1 | 100 | residual activity [21]: 100%
